Measured values as given in ChEMBL document CHEMBL1201862, “PubChem BioAssay data set” (2004).
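Compound exposure: 48 hours, 5 concentrations, 96-well plates. Here, GI50 denotes the concentration required for 50% inhibition of growth.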 The source made the active and inactive calls. No stated cut-off is given here; in the data, active = GI50 up to about 1.1 µM and inactive = higher.

Key:
Experiment in all cases: DTP human tumour cell line panel, 48 h
RXF 393 = test system: RXF 393
NCI-H226 = test system: NCI-H226
OVCAR-5 = test system: OVCAR-5
HCT-116 = test system: HCT-116
MDA-N = test system: MDA-N
SK-MEL-2 = test system: SK-MEL-2
SN12C = test system: SN12C
EKVX = test system: EKVX
HCT-15 = test system: HCT-15
CAKI-1 = test system: CAKI-1
NCI/ADR-RES = test system: NCI/ADR-RES
BT-549 = test system: BT-549
UACC-62 = test system: UACC-62
OVCAR-3 = test system: OVCAR-3
HT-29 = test system: HT-29
SNB-75 = test system: SNB-75
T47D = test system: T47D
IGROV-1 = test system: IGROV-1
Hs-578T = test system: Hs-578T
SF-539 = test system: SF-539

| Compound | GI50 (RXF 393) | GI50 (NCI-H226) | GI50 (OVCAR-5) | GI50 (HCT-116) | GI50 (MDA-N) | GI50 (SK-MEL-2) | GI50 (SN12C) | GI50 (EKVX) | GI50 (HCT-15) [µM] | GI50 (CAKI-1) | GI50 (NCI/ADR-RES) | GI50 (BT-549) | GI50 (UACC-62) | GI50 (OVCAR-3) | GI50 (HT-29) | GI50 (SNB-75) | GI50 (T47D) | GI50 (IGROV-1) | GI50 (Hs-578T) | GI50 (SF-539) |
| --- | --- | --- | --- | --- | --- | --- | --- | --- | --- | --- | --- | --- | --- | --- | --- | --- | --- | --- | --- | --- |
| O=C1Nc2ccccc2/C1=N/NC(=S)N1CCCC1 | 0.358 µM (active) | 0.247 µM (active) | 12.8 µM (inactive) | 0.425 µM (active) | 3.4 µM (inactive) | 6.27 µM (inactive) | 1.91 µM (inactive) | 2.37 µM (inactive) | 0.281 | 2.15 µM (inactive) | 0.361 µM (active) | 2.54 µM (inactive) | 1.32 µM (inactive) | 0.53 µM (active) | 1.19 µM (inactive) | 3.45 µM (inactive) | 6.25 µM (inactive) | 1.87 µM (inactive) | 2.13 µM (inactive) | 1.08 µM (active) |
| CC1(C)[C@@H]2CC[C@]1(C)[C@H](OC(=O)CSC#N)C2 | > 100 µM (inactive) | > 100 µM (inactive) | > 100 µM (inactive) | 40.4 µM (inactive) | > 100 µM (inactive) | > 100 µM (inactive) | > 100 µM (inactive) | > 100 µM (inactive) | > 100 | > 100 µM (inactive) | > 100 µM (inactive) | > 100 µM (inactive) | > 100 µM (inactive) | 30.8 µM (inactive) | > 100 µM (inactive) | > 100 µM (inactive) | > 100 µM (inactive) | > 100 µM (inactive) | > 100 µM (inactive) | 28.7 µM (inactive) |
| Cc1ccc(-c2cc(-c3cc(-c4ccc(C)cc4C)[nH]n3)[nH]n2)c(C)c1 | 14.4 µM (inactive) | 20.5 µM (inactive) | 23.7 µM (inactive) | 16 µM (inactive) | 14.9 µM (inactive) | 18.2 µM (inactive) | 15.3 µM (inactive) | 20.7 µM (inactive) | 15.4 | 18.8 µM (inactive) | 18.9 µM (inactive) | 21.9 µM (inactive) | 24.8 µM (inactive) | 12.2 µM (inactive) | 10.8 µM (inactive) | 18.3 µM (inactive) | 15 µM (inactive) | 13.7 µM (inactive) | 18.1 µM (inactive) | 17 µM (inactive) |
| O=C(Nc1ccccc1)N(C1=NCC(CI)S1)c1ccc(F)cc1F (stereo not drawn) | 24.3 µM (inactive) | 87.3 µM (inactive) | > 100 µM (inactive) | 55.2 µM (inactive) | 35.9 µM (inactive) | > 100 µM (inactive) | 46.7 µM (inactive) | > 100 µM (inactive) | 25 | 25.4 µM (inactive) | > 100 µM (inactive) | 26.5 µM (inactive) | 25.6 µM (inactive) | > 100 µM (inactive) | 29.2 µM (inactive) | > 100 µM (inactive) | 15.3 µM (inactive) | 20.9 µM (inactive) | > 100 µM (inactive) | 59.3 µM (inactive) |
| CC1(COS(=O)(=O)OCC2(C)COS(=O)(=O)OC2)COS(=O)(=O)OC1 | > 64.7 µM (inactive) | > 41.5 µM (inactive) | > 100 µM (inactive) | > 52.6 µM (inactive) | > 72.4 µM (inactive) | > 55.6 µM (inactive) |  | > 71.1 µM (inactive) | > 35.7 | > 100 µM (inactive) | > 48.3 µM (inactive) | > 48.8 µM (inactive) | > 61.8 µM (inactive) | > 100 µM (inactive) | > 32.6 µM (inactive) | > 100 µM (inactive) | > 20.9 µM (inactive) | 39.2 µM (inactive) | > 100 µM (inactive) | > 100 µM (inactive) |
| CC(C)=CCC[C@@H](C)C1=C(N)C(=O)C(C)=C(O)C1=O | > 75 µM (inactive) | 27.5 µM (inactive) | 53.1 µM (inactive) | 27.6 µM (inactive) | 51.3 µM (inactive) | 65.9 µM (inactive) | 45.8 µM (inactive) | 30.6 µM (inactive) | 23.3 | 35.2 µM (inactive) | 8.28 µM (inactive) | > 75 µM (inactive) | 31.1 µM (inactive) | 33 µM (inactive) | 15.6 µM (inactive) | 40.6 µM (inactive) | 42.9 µM (inactive) | 29.9 µM (inactive) | 34.9 µM (inactive) | 41.7 µM (inactive) |
| OCCc1ccsc1-c1sc(-c2cc(CCO)c(-c3sc(-c4cc(CCO)c(-c5sccc5CCO)s4)cc3CCO)s2)cc1CCO | 0.454 µM (active) | 1.65 µM (inactive) | 1.38 µM (inactive) | 0.889 µM (active) | 1.24 µM (inactive) | 1.68 µM (inactive) | 1.85 µM (inactive) | 1.26 µM (inactive) | 1.03 | 1.48 µM (inactive) | 1.86 µM (inactive) | 0.634 µM (active) | 1.56 µM (inactive) | 1.38 µM (inactive) | 1.77 µM (inactive) | 1.27 µM (inactive) | 1.3 µM (inactive) | 1.21 µM (inactive) | 3.13 µM (inactive) | 1.44 µM (inactive) |
| C=C(CC[C@@H](C(=O)O)[C@H]1[C@H](O)C[C@@]2(C)C3=CC[C@@H](C(=C)C)[C@](C)(CCC(=O)O)C3=CC[C@]12C)C(C)C [PORICOIC ACID A] | 17.2 µM (inactive) | 19.7 µM (inactive) | 16.5 µM (inactive) | 16.4 µM (inactive) | 16.9 µM (inactive) | 18.5 µM (inactive) | 16.7 µM (inactive) | 17.6 µM (inactive) | 17.2 | 15.2 µM (inactive) | 19.7 µM (inactive) | 18.5 µM (inactive) | 15.3 µM (inactive) | 19.1 µM (inactive) | 17.6 µM (inactive) | 20.4 µM (inactive) | 23.8 µM (inactive) |  | 22.6 µM (inactive) | 20 µM (inactive) |
| Cn1c(=O)cc(NNc2ccc(Cl)c(Cl)c2)[nH]c1=O | 22.9 µM (inactive) | 19.5 µM (inactive) | 14.4 µM (inactive) | 7.19 µM (inactive) | 9.06 µM (inactive) | 16.4 µM (inactive) | 4.34 µM (inactive) | 10 µM (inactive) | 3.75 | 14.1 µM (inactive) | 13.3 µM (inactive) | 16 µM (inactive) | 1.71 µM (inactive) | 15.5 µM (inactive) | 18 µM (inactive) | 23 µM (inactive) | 4.99 µM (inactive) | 6.52 µM (inactive) | 20.4 µM (inactive) | 15.1 µM (inactive) |
| Cc1ccc(S(=O)(=O)N2CCN(S(=O)(=O)c3ccc(C)cc3)CCN(S(=O)(=O)c3ccc(C)cc3)Cc3cc(C#N)c(C#N)cc3CN(S(=O)(=O)c3ccc(C)cc3)CC2)cc1 | > 100 µM (inactive) | 56.2 µM (inactive) | > 100 µM (inactive) | > 100 µM (inactive) | 95.7 µM (inactive) |  | > 100 µM (inactive) | > 100 µM (inactive) | > 100 | > 100 µM (inactive) | > 100 µM (inactive) | > 100 µM (inactive) | > 100 µM (inactive) | > 100 µM (inactive) | > 100 µM (inactive) | 19.1 µM (inactive) | > 100 µM (inactive) | > 100 µM (inactive) | > 100 µM (inactive) | > 100 µM (inactive) |
| Cc1c(-c2nc3ccccc3[nH]2)c(=O)n(-c2ccccc2)n1C | > 100 µM (inactive) | > 100 µM (inactive) |  | > 100 µM (inactive) | > 100 µM (inactive) | > 100 µM (inactive) | > 100 µM (inactive) | > 100 µM (inactive) | > 100 | > 100 µM (inactive) | > 100 µM (inactive) | > 100 µM (inactive) | > 100 µM (inactive) | > 100 µM (inactive) | > 100 µM (inactive) | > 100 µM (inactive) | > 100 µM (inactive) | > 100 µM (inactive) | > 100 µM (inactive) | > 100 µM (inactive) |
| CC(C)C1OCC(CO)CO1 (stereo not drawn) | > 100 µM (inactive) | > 100 µM (inactive) | > 100 µM (inactive) | > 100 µM (inactive) | > 100 µM (inactive) | > 100 µM (inactive) | > 100 µM (inactive) | > 100 µM (inactive) | > 100 | > 100 µM (inactive) | > 100 µM (inactive) | 31.6 µM (inactive) | > 100 µM (inactive) | > 100 µM (inactive) | > 100 µM (inactive) | > 100 µM (inactive) | > 100 µM (inactive) |  | > 100 µM (inactive) | > 100 µM (inactive) |
| CC1(C(=O)O)CCC2(C)CCC3(C)C(=CC(=O)C4C5(C)CCC(O)C(C)(C)C5CCC43C)C2C1 (stereo not drawn) | 36.1 µM (inactive) | 25.8 µM (inactive) | 29.6 µM (inactive) | 23.4 µM (inactive) | 38.7 µM (inactive) | 21.8 µM (inactive) | 41.8 µM (inactive) | 34.9 µM (inactive) | 34.8 | 24.4 µM (inactive) | 46 µM (inactive) | 11.7 µM (inactive) | 21 µM (inactive) | 19.3 µM (inactive) | 20.2 µM (inactive) | 33.8 µM (inactive) | 30.8 µM (inactive) |  | 28.6 µM (inactive) | 17.6 µM (inactive) |
| O=[N+]([O-])c1ccc(/C(=C\c2ccccc2)Cn2ccnc2)cc1 | 31.6 µM (inactive) | 32.4 µM (inactive) | 61.5 µM (inactive) | 23.6 µM (inactive) | 25.4 µM (inactive) | 22.9 µM (inactive) | 35 µM (inactive) | 43.9 µM (inactive) | 30.2 | 3.77 µM (inactive) | 21.1 µM (inactive) | 25.6 µM (inactive) | 33.5 µM (inactive) |  | 14 µM (inactive) | 27.4 µM (inactive) | 34.8 µM (inactive) | 24.6 µM (inactive) | 29.1 µM (inactive) | 43.4 µM (inactive) |
